Experimental data: patent US7238669B2, “Phage-display peptides as novel antimicrobial agents against Haemophilus influenzae” (priority 2002, dated 2007)

Columns and labels:
Proteus [1] = assay: Growth of other bacterial species in presence of hi3/17; type: cell-based, Proteus mirabilis; conditions: FIG. 4
Procedure: (§1) (Salmonella), Enterococcus faecialis (E. faec.), Staphylococcus aureus (S. aur.) and Pseudomonas aeruginosa (P. aeru.). One hundred and fifty μl of the test bacteria were incubated in the presence of either hi3/17, f88 unselected phage display library in sBHI broth (supplemented with 10 μg/mL heme and NAD+) or control sBHI at 37° C. The next day, the optical densities of the bacterial cultures were evaluated by direct measurement of the optical densities at OD630 nm. Dilutions of the bacteria were incubated on sBHI agar plates to determine the total number of colonies per well.

Enterococcus faecialis [2] = assay: Binding to bacteria via ELISA
Int-1 strain of NTHi = assay: Inhibition of Int-1 growth by phage-displayed peptides (overnight in sBHI broth, OD630 and colony counts); type: cell-based, Haemophilus influenzae; conditions: for MIC concentration resulting in no bacterial growth: FIGS. 3A and 3B
Procedure: The next day, the optical densities of the bacterial cultures were evaluated by direct measurement of the optical densities at OD630 nm.
Int-1, a non-typeable clinical isolate, was isolated in 1991 from the blood of a child with clinical symptoms of meningitis. It is virulent in rat models and is able to survive in human serum. Kw20, a non-typeable strain, was isolated in 1954. R3001, a non-typeable clinical isolate, was isolated from a bronchial lavage of a cystic fibrosis patient. R2140, is a non-typeable clinical isolate. R538 is a Haemophilus influenzae type b ATCC strain No. 9795. E1a is a type b Haemophilus influenzae clinical isolate.

Proteus [3] = assay: Binding to bacteria via ELISA; set-up: species or system Proteus mirabilis
Enterococcus faecialis [4] = assay: Growth of other bacterial species in presence of hi3/17; type: cell-based; conditions: FIG. 4
Procedure: as §1

Staphylococcus aureus = assay: as above; type: cell-based; conditions: FIG. 4
Procedure: as §1

NTHi = assay: Microscopic examination of cell membrane integrity; type: cell-based, Haemophilus influenzae; conditions: microscopic results

In the case of KQRTSIRATEGCLPS [hi3/17], the “antimicrobial activity against Proteus” value (Proteus [1]) is reported as “no activity”, the “binding via ELISA” value (Enterococcus faecialis [2]) is reported as “binding being detectable” and the MIC (Int-1 strain of NTHi) is reported as ~1e10 virions per μl. The “bactericidal activity against Int-1” value (Int-1 strain of NTHi) was “bactericidal”, the “greater antimicrobial activity towards Int-1 compared with Group 2 phage displayed peptides” value (Int-1 strain of NTHi) was “over 5 fold” and the “MIC concentration resulting in no bacterial growth” value (Int-1 strain of NTHi) was 3.64×10^9 virions. The “binding via ELISA” value (Proteus [3]) was “binding being detectable”, the “antimicrobial activity against Enterococcus faecialis” value (Enterococcus faecialis [4]) was “no activity” and the “inhibition of growth of Staphylococcus aureus” value (Staphylococcus aureus) was “completely inhibit the growth”. For the same sequence, the “effect on cell membrane integrity of NTHi” value (NTHi) was “altered the cell membrane integrity”.

In the case of VVFLSSRNSAVFTDF [fUSE5/2], the “bactericidal activity against Int-1” value (Int-1 strain of NTHi) is reported as “bactericidal”, the “MIC concentration resulting in no bacterial growth” value (Int-1 strain of NTHi) is reported as 2.4×10^10 virions and the “effect on cell membrane integrity of NTHi” value (NTHi) is reported as “altered the cell membrane integrity”.
